Results on 31 compounds are retold here after ChEMBL document CHEMBL4706617, “Pyrimido[1,2-b]indazole derivatives: Selective inhibitors of human monoamine oxidase B with neuroprotective activity” (Eur J Med Chem, 2021).

Activity calls are given as the source filed them. The calls are words filed in the database; no cut-off is given here. Some results are limits rather than exact numbers.

As a reminder, the IC50 is the concentration needed to halve the response being measured. As usually defined, the Ki is a dissociation constant, usually derived from enzyme kinetics or from competition with a known ligand.

The target in series [1] is T1, Amine oxidase [flavin-containing] B (Homo sapiens, UniProt P27338).
T1 sequence (P27338 whole entry): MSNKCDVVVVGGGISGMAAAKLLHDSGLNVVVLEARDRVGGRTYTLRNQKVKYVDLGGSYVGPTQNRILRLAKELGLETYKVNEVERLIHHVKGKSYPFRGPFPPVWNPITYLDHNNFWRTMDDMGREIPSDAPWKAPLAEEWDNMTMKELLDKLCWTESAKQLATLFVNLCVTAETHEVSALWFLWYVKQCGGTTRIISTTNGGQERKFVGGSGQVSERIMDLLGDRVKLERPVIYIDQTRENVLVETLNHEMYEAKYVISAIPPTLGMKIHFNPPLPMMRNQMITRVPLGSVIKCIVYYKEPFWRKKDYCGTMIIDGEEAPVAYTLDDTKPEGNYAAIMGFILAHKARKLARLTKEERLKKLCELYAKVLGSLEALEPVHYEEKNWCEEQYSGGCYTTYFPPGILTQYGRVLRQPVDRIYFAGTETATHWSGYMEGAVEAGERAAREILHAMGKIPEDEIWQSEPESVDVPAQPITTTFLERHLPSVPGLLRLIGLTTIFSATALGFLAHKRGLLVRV
As to the kind of experiment: biochemical. The series is classed as cell-based, BTI-TN-5B1-4.
Description: Inhibition of recombinant human MAO-B expressed in baculovirus infected BTI-TN-5B1-4 insect cells using p-tyramine as substrate preincubated for 15 mins followed by substrate addition and measured over 20 mins by horse-radish peroxidase/Amplex Red coupled fluorimetric analysis

Series [2] has as its target T2, Amine oxidase [flavin-containing] A (Homo sapiens, UniProt P21397).
T2 sequence (P21397 whole entry): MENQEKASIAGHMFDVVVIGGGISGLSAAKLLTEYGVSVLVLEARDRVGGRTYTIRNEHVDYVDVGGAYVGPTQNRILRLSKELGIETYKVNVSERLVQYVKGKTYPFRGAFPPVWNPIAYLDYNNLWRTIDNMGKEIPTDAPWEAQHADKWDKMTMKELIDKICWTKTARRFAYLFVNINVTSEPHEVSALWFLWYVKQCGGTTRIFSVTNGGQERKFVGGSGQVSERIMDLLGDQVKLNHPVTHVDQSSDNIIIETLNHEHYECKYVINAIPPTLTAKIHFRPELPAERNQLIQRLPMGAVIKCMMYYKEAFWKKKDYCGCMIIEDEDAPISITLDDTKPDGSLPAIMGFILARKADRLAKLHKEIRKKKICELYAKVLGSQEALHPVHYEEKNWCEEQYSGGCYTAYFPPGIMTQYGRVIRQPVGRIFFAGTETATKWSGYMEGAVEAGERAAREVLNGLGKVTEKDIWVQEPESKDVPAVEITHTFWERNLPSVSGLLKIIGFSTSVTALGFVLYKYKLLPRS
Description: Inhibition of recombinant human MAO-A expressed in baculovirus infected BTI-TN-5B1-4 insect cells using p-tyramine as substrate preincubated for 15 mins followed by substrate addition and measured over 20 mins by horse-radish peroxidase/Amplex Red coupled fluorimetric analysis.

Series [3] in a line: Cytotoxicity against human SH-SY5Y cells assessed as metabolic activity up to 100 uM incubated for 24 hrs by MTS assay relative to control. The series is classed as ADME, cell-based. The following applies: read-out: Activity. On the technique in general: Tetrazolium assays rely on reduction of a dye to a coloured formazan, in cell work by metabolically active cells.
Series [4] has as its target T1, Amine oxidase [flavin-containing] B. As to the kind of experiment: Competitive inhibition of recombinant human MAO-B expressed in baculovirus infected BTI-TN-5B1-4 insect cells using varying level of p-tyramine as substrate by Lineweaver-Burk plot analysis.
Series [5] relates to SH-SY5Y. Description: Cytotoxicity against human SH-SY5Y cells assessed as reduction in metabolic activity up to 20 uM incubated for 24 hrs by MTS assay. Type of series: ADME, cell-based.
For series [6], the system named is SH-SY5Y. Description: Cytotoxicity against human SH-SY5Y cells assessed as reduction in metabolic activity at 50 to 100 uM incubated for 24 hrs by MTS assay. The series is classed as ADME, cell-based. As to conditions: dose 50-100 µM.
The subject of series [7] is SH-SY5Y. Description: Neuroprotective activity against 6-OHDA-induced cell death in human SH-SY5Y cells at 1 uM preincubated for 1 hr followed by 6-OHDA stimulation for 24 hrs by 7AAD staining based flow cytometric analysis. Type of series: functional. As to conditions: time 25.0 hrs. A general note: In flow cytometry, cells or beads pass a laser one at a time.

Regarding `O=[N+]([O-])c1ccc2nn3cc(Br)cnc3c2c1`, the 50% inhibitory concentration (IC50) is above 100000 nM in series [1] and above 100 µM in series [2].

Consider `c1ccc(-c2cnc3c4ncccc4nn3c2)cc1`, for which the IC50 is 88300 nM in series [1] and above 100 µM in series [2].

For `CCOC(=O)c1ccc(-c2cnc3c4cccnc4nn3c2)cc1`, the figures for the 50% inhibitory concentration (IC50) in series [1] and in series [2] were 822 nM and above 100 µM, respectively.

On to `COc1cccc(-c2cnc3c4cccnc4nn3c2)c1`, for which the values for the IC50 in series [1] and in series [2] were 397 nM and above 100 µM, respectively.

Consider `CCOC(=O)c1ccccc1-c1cnc2c3nccnc3nn2c1`, for which the IC50 in series [1] is above 100000 nM; in series [2], above 100 µM.

Turning to `Fc1cccc2nn3cc(Br)cnc3c12`, the concentration for half-maximal inhibition (IC50) in series [1] was above 100000 nM; in series [2] it was above 100 µM.

As for `CS(=O)(=O)c1ccc(-c2cnc3c4cccnc4nn3c2)cc1`, the IC50 in series [1] was 5700 nM; in series [2], above 100 µM.

Take `Brc1cnc2c3ncccc3nn2c1`: the IC50 was above 100000 nM in series [1] and above 100 µM in series [2].

With `Fc1ncccc1-c1cnc2c3ccccc3nn2c1`, the IC50 was 648 nM in series [1] and 21.1 µM in series [2].

Take `CSc1ccc(-c2cnc3c4ccccc4nn3c2)cc1`: the viability at 24 h in series [3] is above 85%. Also, the results for the concentration for half-maximal inhibition (IC50) in series [1] and in series [2] were 65 nM and above 100 µM, respectively. Besides, the inhibition constant (Ki) in series [4] was 24.7 nM. The Activity entry in the series on SH-SY5Y [5] is on record as “Non-Toxic”.

Regarding `COc1ccc2c3c([nH]c2c1)C(C)=NCC3` [HARMALINE], the IC50 is above 100000 nM in series [1] and 0.0329 µM in series [2].

As to `c1cnc2c(c1)nn1cc(-c3ccsc3)cnc21`, the half-inhibitory concentration (IC50) was 14800 nM in series [1] and above 100 µM in series [2].

As to `COc1ccc(-c2cnc3c4nccnc4nn3c2)cc1`, the results for the 50% inhibitory concentration (IC50) in series [1] and in series [2] were 1250 nM and above 100 µM, respectively.

In the case of `COc1ccc(-c2cnc3c4cccnc4nn3c2)cc1`, the IC50 in series [1] is 818 nM; in series [2] it was above 100 µM.

In the case of `FC(F)(F)c1cccc(-c2cnc3c4cccnc4nn3c2)c1`, the results for the IC50 in series [1] and in series [2] were 1020 nM and above 100 µM, respectively.

As for `COc1ccc(-c2cnc3c4ccccc4nn3c2)cc1`, the half-maximal inhibitory concentration (IC50) is 215 nM in series [1] and above 100 µM in series [2]. Further, the values for the Activity entry with SH-SY5Y [6] and in the series on SH-SY5Y [5] were “Toxic” and “Non-Toxic”, respectively.

For the compound `Brc1cnc2c3ccccc3nn2c1`, the IC50 is above 100000 nM in series [1] and above 100 µM in series [2].

As for `Brc1cnc2c3nccnc3nn2c1`, the IC50 was above 100000 nM in series [1] and above 100 µM in series [2].

With `FC(F)(F)c1ccc2c(c1)nn1cc(Br)cnc21`, the IC50 was 1170 nM in series [1] and above 100 µM in series [2].

On to `Brc1cnc2c3cccnc3nn2c1`, for which the 50% inhibitory concentration (IC50) in series [1] was above 100000 nM; in series [2] it was above 100 µM.

`CC(=O)c1ccc(-c2cnc3c4cccnc4nn3c2)cc1`: the viability at 24 h in series [3] is above 85%. Besides, the results for the half-maximal inhibitory concentration (IC50) in series [1] and in series [2] were 130 nM and above 100 µM, respectively. For the same compound, the outcome in the series on SH-SY5Y [7] was Active. Further, the inhibition constant Ki in series [4] amounted to 76.5 nM. Also, the Activity result in the series with SH-SY5Y [5] is listed as “Non-Toxic”.

For the compound `COc1ccccc1-c1cnc2c3cccnc3nn2c1`, the IC50 in series [1] is 3790 nM; in series [2] it was above 100 µM.

Turning to `c1csc(-c2cnc3c4cccnc4nn3c2)c1`, the IC50 in series [1] is 4480 nM; in series [2], above 100 µM.

On to `COc1ccc(-c2cnc3c4ncccc4nn3c2)cc1`, for which the IC50 in series [1] was 236 nM; in series [2], above 100 µM. Also, the Activity result with SH-SY5Y [6] is given as “Toxic”; in the series on SH-SY5Y [5], “Non-Toxic”. In addition, in the series on SH-SY5Y [7], the result was Active. Moreover, the inhibition constant (Ki) in series [4] worked out at 107 nM.

Regarding `Fc1ccc(-c2cnc3c4cccnc4nn3c2)cn1`, the IC50 in series [1] is above 100000 nM; in series [2], above 100 µM.

Regarding `Brc1ccc2nn3cc(Br)cnc3c2c1`, the results for the IC50 in series [1] and in series [2] were above 100000 nM and above 100 µM, respectively.

Regarding `Clc1cccc2nn3cc(Br)cnc3c12`, the concentration for half-maximal inhibition (IC50) in series [1] was above 100000 nM; in series [2], above 100 µM.

Turning to `Brc1ccc2c(c1)nn1cc(Br)cnc21`, the results for the IC50 in series [1] and in series [2] were above 100000 nM and above 100 µM, respectively.

As to `COc1ccc(-c2cnc3c4c(Cl)cccc4nn3c2)cc1`, the values for the 50% inhibitory concentration (IC50) in series [1] and in series [2] were 132 nM and above 100 µM, respectively. Besides, the Activity result with SH-SY5Y [6] is on record as “Toxic”.

For the compound `C(=C\c1cnc2c3cccnc3nn2c1)/c1ccccc1`, the half-inhibitory concentration (IC50) in series [1] is 837 nM; in series [2], above 100 µM.

With `COc1ccc(-c2cnc3c4c(F)cccc4nn3c2)cc1`, the viability at 24 h in series [3] is above 85%. Also, the IC50 was 62 nM in series [1] and above 100 µM in series [2]. In addition, in series [4], the Ki was 33.7 nM.
